Source: patent US8017318B1, “Method for detecting and/or quantifying a known function from a nucleic acid sample” (priority 1998, dated 2011)

Target: T1, β-lactamase TEM-1 (Escherichia coli, UniProt P62593)
T1 construct: made in house; host or cells: cell-free in vitro translation as described by Zubay (microbial system)
Assay: "resistance to clavulanic acid" beta-lactamase activity test with nitrocephine on in vitro translated enzyme
Type: biochemical
Details: sample 1 (100% germs resistant to antibiotics only, 0% double resistance); 1 μl clavulanic acid, 3 minutes at 25° C., then nitrocephine; 486 nm
Method: 10 μl of culture at DO600.2.3 were centrifuged and each pellet was resuspended into 12 μl of cellular lysis buffer (10 mM Tris HCl pH 7.5, 1 mM EDTA, 50 μg/ml proteinase K) and incubated 15 minutes at 55° C. then 15 minutes at 80° C. 9 μl of each of these lysates was added to a PCR amplification mixture that permitted amplification of the gene conferring monoresistance and of the gene conferring polyresistance, as well as of the sequences permitting their in vitro expression. 5 μl of each PCR amplification were used to carry out an in vitro transcription as described by Gurevich et al. (Gurevich V. A., Pokrovskaya I. D., Obukhova T. A. and Zozulya S., 1991, Preparative in vitro mRNA synthesis using SP6 and T7 polymerases, Anal. Biochem., 195, 207-213) 10 μl of each transcription was used to translate in vitro the proteins as described by Zubay (Zubay G., 1973, In vitro synthesis of protein in microbial systems, Ann. Rev. Genet., 7, 267-287) to a final volume of 100 μl
Two types of activity tests were carried out: • A measurement of the “total” beta-lactamase activity by using as substrate a chromogenic antibiotic: nitrocephine. […] The reaction was followed by monitoring absorbance changes at 486 nm. • A measurement of the “resistance to clavulanic acid” activity by using as substrate a chromogenic antibiotic: nitrocephine and a given concentration of clavulanic acid. […]

T1 sequence (P62593 24-286 limits assumed): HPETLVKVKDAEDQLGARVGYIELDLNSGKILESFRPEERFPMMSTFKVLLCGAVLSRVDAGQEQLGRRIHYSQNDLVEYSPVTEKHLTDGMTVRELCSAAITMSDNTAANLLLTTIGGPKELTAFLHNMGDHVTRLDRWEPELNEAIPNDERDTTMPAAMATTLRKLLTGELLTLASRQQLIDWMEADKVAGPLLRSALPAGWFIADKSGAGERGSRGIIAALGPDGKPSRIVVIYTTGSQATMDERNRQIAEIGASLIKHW

## O=C(O)[C@H]1/C(=C/CO)O[C@@H]2CC(=O)N21 [clavulanic acid]
  beta-lactamase activity detected in the presence of clavulanic acid: no activity is detected
